Assay results from US20100298141A1, “SUBSTITUTED PYRIDINE N-OXIDE HERBICIDES” (E. I. DU PONT DE NEMOURS AND COMPANY, priority 2007, published 2010).

Assays:
purple nutsedge = experiment: Test F preemergence test; type: in vivo, Cyperus rotundus; conditions: scale 0 to 100
Outline: (§1)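 Test chemicals were formulated in a non-phytotoxic solvent mixture with surfactant and applied preemergence to planted seeds or postemergence to sugarcane plants. Plants were kept in a greenhouse for 14 to 21 days, then visually evaluated against controls.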

southern sandbur = experiment: Test F preemergence test; type: in vivo, Cenchrus echinatus; conditions: scale 0 to 100; for Plant response rating, Sandbur: 31 g ai/ha
Outline: as §1

quackgrass = experiment: Test F preemergence test; type: in vivo, Elytrigia repens; conditions: scale 0 to 100
Outline: as §1

common ragweed = experiment: Test F preemergence test; type: in vivo, Ambrosia elation; conditions: scale 0 to 100
Outline: as §1

woolly cupgrass = experiment: Test C pre-/postemergence test; type: in vivo, Eriochloa villosa; conditions: for Plant response rating (0 to 100), Cupgrass, Woolly: 250 g ai/ha
Outline: (§2)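 Seeds were planted and treated preemergence with test chemical in a non-phytotoxic solvent mixture containing surfactant. Postemergence applications of the same formulation went onto plants 2 to 18 cm tall (1- to 4-leaf stage). A dash marks no test result.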

mustard = experiment: Test F preemergence test; type: in vivo, Brassica nigra; conditions: scale 0 to 100
Outline: as §1

corn = experiment: Test C pre-/postemergence test; type: in vivo, Zea mays; conditions: for Plant response rating (0 to 100), Corn: 250 g ai/ha
Outline: as §2

large crabgrass = experiment: Test F preemergence test; type: in vivo, Digitaria sanguinalis; conditions: scale 0 to 100
Outline: as §1

blackgrass = experiment: Test C pre-/postemergence test; type: in vivo, Alopecurus myosuroides; conditions: for Plant response rating (0 to 100), Blackgrass: 250 g ai/ha
Outline: as §2

barnyardgrass = experiment: Test F preemergence test; type: in vivo, Echinochloa crus-galli; conditions: scale 0 to 100
Outline: as §1

broadleaf signalgrass = experiment: Test F preemergence test; type: in vivo, Brachiaria platyphylla; conditions: scale 0 to 100; for Plant response rating, Signalgrass: 31 g ai/ha
Outline: as §1

Surinam grass = experiment: Test F preemergence test; type: in vivo, Brachiaria decumbens; conditions: scale 0 to 100; for Plant response rating, Surinam Grass: 31 g ai/ha
Outline: as §1

kochia = experiment: Test F preemergence test; type: in vivo, Kochia scoparia; conditions: scale 0 to 100
Outline: as §1

Italian ryegrass = experiment: Test F preemergence test; type: in vivo, Lolium multiflorum; conditions: scale 0 to 100
Outline: as §1

bermudagrass = experiment: Test F preemergence test; type: in vivo, Cynodon dactylon; conditions: scale 0 to 100
Outline: as §1

goosegrass = experiment: Test F preemergence test; type: in vivo, Eleusine indica; conditions: scale 0 to 100
Outline: as §1

[1] = 31 g ai/ha, Preemergence, scale 0 to 100
[2] = 62 g ai/ha, preemergence, scale 0 (no effect) to 100 (complete control)
[3] = preemergence, 125 g ai/ha, scale 0 (no effect) to 100 (complete control)
[4] = 62 g ai/ha, Preemergence, scale 0 to 100
[5] = Preemergence, 31 g ai/ha, scale 0 to 100 (0 no effect, 100 complete control)

SMILES: Cc1cc[n+]([O-])c(S(=O)(=O)C(C)c2c(C(F)(F)F)nn(C)c2OC(F)F)c1 (stereo not shown) [Compound 11]
- Purple Nutsedge plant response rating (purple nutsedge; 62 g ai/ha, Preemergence): 100
- Purple Nutsedge plant response rating (purple nutsedge; 125 g ai/ha, preemergence): 100
- Plant response rating, Purple Nutsedge (purple nutsedge; Preemergence, 16 g ai/ha): 25
- Plant response rating, Purple Nutsedge (purple nutsedge; Preemergence, 31 g ai/ha): 65
- Sandbur plant response rating (southern sandbur; 62 g ai/ha, Preemergence): 100
- Sandbur plant response rating (southern sandbur; 125 g ai/ha, preemergence): 100
- Plant response rating, Sandbur (southern sandbur; Preemergence): 95
- Quackgrass plant response rating (quackgrass; 62 g ai/ha, Preemergence): 75
- Quackgrass plant response rating (quackgrass; 125 g ai/ha, preemergence): 90
- Plant response rating, Quackgrass (quackgrass; Preemergence, 16 g ai/ha): 0
- Plant response rating, Quackgrass (quackgrass; Preemergence, 31 g ai/ha): 60
- Ragweed plant response rating (common ragweed; 62 g ai/ha, Preemergence): 75
- Ragweed plant response rating (common ragweed; 125 g ai/ha, preemergence): 100
- Plant response rating, Ragweed (common ragweed; Preemergence, 16 g ai/ha): 30
- Plant response rating, Ragweed (common ragweed; Preemergence, 31 g ai/ha): 65
- Cupgrass, Woolly plant response rating (woolly cupgrass; [1]): 60
- Cupgrass, Woolly plant response rating (woolly cupgrass; [2]): 80
- Plant response rating (0 to 100), Cupgrass, Woolly (woolly cupgrass; Preemergence): 100
- Cupgrass, Woolly plant response rating (woolly cupgrass; [3]): 85
- Black Mustard plant response rating (mustard; 62 g ai/ha, Preemergence): 100
- Black Mustard plant response rating (mustard; 125 g ai/ha, preemergence): 100
- Plant response rating, Black Mustard (mustard; Preemergence, 16 g ai/ha): 35
- Plant response rating, Black Mustard (mustard; Preemergence, 31 g ai/ha): 80
- Corn plant response rating (corn; [1]): 0
- Corn plant response rating (corn; [2]): 50
- Plant response rating (0 to 100), Corn (corn; Preemergence): 98
- Corn plant response rating (corn; [3]): 98
- Crabgrass, Large plant response rating (large crabgrass; 62 g ai/ha, Preemergence): 98
- Crabgrass, Large plant response rating (large crabgrass; 125 g ai/ha, preemergence): 100
- Plant response rating, Crabgrass, Large (large crabgrass; Preemergence, 16 g ai/ha): 60
- Plant response rating, Crabgrass, Large (large crabgrass; Preemergence, 31 g ai/ha): 80
- Blackgrass plant response rating (blackgrass; [1]): 0
- Blackgrass plant response rating (blackgrass; [2]): 0
- Plant response rating (0 to 100), Blackgrass (blackgrass; Preemergence): 90
- Blackgrass plant response rating (blackgrass; [3]): 90
- Barnyardgrass plant response rating (barnyardgrass; 62 g ai/ha, Preemergence): 95
- Barnyardgrass plant response rating (barnyardgrass; 125 g ai/ha, preemergence): 98
- Plant response rating, Barnyardgrass (barnyardgrass; Preemergence, 16 g ai/ha): 75
- Plant response rating, Barnyardgrass (barnyardgrass; Preemergence, 31 g ai/ha): 95
- Signalgrass plant response rating (broadleaf signalgrass; 62 g ai/ha, Preemergence): 75
- Signalgrass plant response rating (broadleaf signalgrass; 125 g ai/ha, preemergence): 75
- Plant response rating, Signalgrass (broadleaf signalgrass; Preemergence): 65
- Surinam Grass plant response rating (Surinam grass; 62 g ai/ha, Preemergence): 100
- Surinam Grass plant response rating (Surinam grass; 125 g ai/ha, preemergence): 100
- Plant response rating, Surinam Grass (Surinam grass; Preemergence): 98
- Kochia plant response rating (kochia; 125 g ai/ha, preemergence): 100
- Plant response rating, Kochia (kochia; Preemergence, 16 g ai/ha): 0
- Plant response rating, Kochia (kochia; Preemergence, 31 g ai/ha): 100
- Ryegrass, Italian plant response rating (Italian ryegrass; 62 g ai/ha, Preemergence): 75
- Ryegrass, Italian plant response rating (Italian ryegrass; 125 g ai/ha, preemergence): 95
- Plant response rating, Ryegrass, Italian (Italian ryegrass; Preemergence, 16 g ai/ha): 35
- Plant response rating, Ryegrass, Italian (Italian ryegrass; Preemergence, 31 g ai/ha): 50
- Bermudagrass plant response rating (bermudagrass; 62 g ai/ha, Preemergence): 98
- Bermudagrass plant response rating (bermudagrass; 125 g ai/ha, preemergence): 100
- Plant response rating, Bermudagrass (bermudagrass; Preemergence, 16 g ai/ha): 35
- Plant response rating, Bermudagrass (bermudagrass; Preemergence, 31 g ai/ha): 70
- Goosegrass plant response rating (goosegrass; 62 g ai/ha, Preemergence): 98
- Goosegrass plant response rating (goosegrass; 125 g ai/ha, preemergence): 100
- Plant response rating, Goosegrass (goosegrass; Preemergence, 16 g ai/ha): 70
- Plant response rating, Goosegrass (goosegrass; Preemergence, 31 g ai/ha): 90

SMILES: Cn1nc(C(F)(F)F)c(CS(=O)(=O)c2cccc[n+]2[O-])c1OCC(F)(F)F [Compound 29]
- Purple Nutsedge plant response rating (purple nutsedge; 125 g ai/ha, preemergence): 75
- Plant response rating, Purple Nutsedge (purple nutsedge; Preemergence, 16 g ai/ha): 20
- Plant response rating, Purple Nutsedge (purple nutsedge; Preemergence, 31 g ai/ha): 35
- Sandbur plant response rating (southern sandbur; 62 g ai/ha, Preemergence): 100
- Sandbur plant response rating (southern sandbur; 125 g ai/ha, preemergence): 100
- Plant response rating, Sandbur (southern sandbur; Preemergence): 100
- Quackgrass plant response rating (quackgrass; 62 g ai/ha, Preemergence): 95
- Quackgrass plant response rating (quackgrass; 125 g ai/ha, preemergence): 95
- Plant response rating, Quackgrass (quackgrass; Preemergence, 16 g ai/ha): 0
- Plant response rating, Quackgrass (quackgrass; Preemergence, 31 g ai/ha): 30
- Ragweed plant response rating (common ragweed; 62 g ai/ha, Preemergence): 70
- Ragweed plant response rating (common ragweed; 125 g ai/ha, preemergence): 80
- Plant response rating, Ragweed (common ragweed; Preemergence, 16 g ai/ha): 0
- Plant response rating, Ragweed (common ragweed; Preemergence, 31 g ai/ha): 40
- Cupgrass, Woolly plant response rating (woolly cupgrass; [4]): 100
- Plant response rating, Cupgrass, Woolly (woolly cupgrass; [5]): 80
- Plant response rating (0 to 100), Cupgrass, Woolly (woolly cupgrass; Preemergence): 100
- Black Mustard plant response rating (mustard; 62 g ai/ha, Preemergence): 100
- Black Mustard plant response rating (mustard; 125 g ai/ha, preemergence): 100
- Plant response rating, Black Mustard (mustard; Preemergence, 16 g ai/ha): 40
- Plant response rating, Black Mustard (mustard; Preemergence, 31 g ai/ha): 100
- Corn plant response rating (corn; [4]): 80
- Plant response rating, Corn (corn; [5]): 0
- Plant response rating (0 to 100), Corn (corn; Preemergence): 98
- Corn plant response rating (corn; [3]): 98
- Crabgrass, Large plant response rating (large crabgrass; 62 g ai/ha, Preemergence): 95
- Crabgrass, Large plant response rating (large crabgrass; 125 g ai/ha, preemergence): 100
- Plant response rating, Crabgrass, Large (large crabgrass; Preemergence, 16 g ai/ha): 15
- Plant response rating, Crabgrass, Large (large crabgrass; Preemergence, 31 g ai/ha): 95
- Blackgrass plant response rating (blackgrass; [4]): 100
- Plant response rating, Blackgrass (blackgrass; [5]): 98
- Plant response rating (0 to 100), Blackgrass (blackgrass; Preemergence): 100
- Blackgrass plant response rating (blackgrass; [3]): 100
- Barnyardgrass plant response rating (barnyardgrass; 62 g ai/ha, Preemergence): 100
- Barnyardgrass plant response rating (barnyardgrass; 125 g ai/ha, preemergence): 100
- Plant response rating, Barnyardgrass (barnyardgrass; Preemergence, 16 g ai/ha): 50
- Plant response rating, Barnyardgrass (barnyardgrass; Preemergence, 31 g ai/ha): 100
- Signalgrass plant response rating (broadleaf signalgrass; 62 g ai/ha, Preemergence): 100
- Signalgrass plant response rating (broadleaf signalgrass; 125 g ai/ha, preemergence): 100
- Plant response rating, Signalgrass (broadleaf signalgrass; Preemergence): 50
- Surinam Grass plant response rating (Surinam grass; 62 g ai/ha, Preemergence): 100
- Surinam Grass plant response rating (Surinam grass; 125 g ai/ha, preemergence): 100
- Plant response rating, Surinam Grass (Surinam grass; Preemergence): 75
- Kochia plant response rating (kochia; 62 g ai/ha, Preemergence): 100
- Kochia plant response rating (kochia; 125 g ai/ha, preemergence): 100
- Plant response rating, Kochia (kochia; Preemergence, 16 g ai/ha): 0
- Plant response rating, Kochia (kochia; Preemergence, 31 g ai/ha): 30
- Ryegrass, Italian plant response rating (Italian ryegrass; 62 g ai/ha, Preemergence): 100
- Ryegrass, Italian plant response rating (Italian ryegrass; 125 g ai/ha, preemergence): 100
- Plant response rating, Ryegrass, Italian (Italian ryegrass; Preemergence, 16 g ai/ha): 65
- Plant response rating, Ryegrass, Italian (Italian ryegrass; Preemergence, 31 g ai/ha): 100
- Bermudagrass plant response rating (bermudagrass; 125 g ai/ha, preemergence): 100
- Plant response rating, Bermudagrass (bermudagrass; Preemergence, 16 g ai/ha): 40
- Plant response rating, Bermudagrass (bermudagrass; Preemergence, 31 g ai/ha): 90
- Goosegrass plant response rating (goosegrass; 62 g ai/ha, Preemergence): 100
- Goosegrass plant response rating (goosegrass; 125 g ai/ha, preemergence): 100
- Plant response rating, Goosegrass (goosegrass; Preemergence, 16 g ai/ha): 65
- Plant response rating, Goosegrass (goosegrass; Preemergence, 31 g ai/ha): 100
